Results on 15 compounds are retold here after US9663495B2 (YUHAN CORPORATION, priority 2013, dated 2017).

In one assay the test system is male C57BL/6 mice. Kind of assay: Oral Glucose Tolerance Test (OGTT). The assay is classed as in vivo. The arrangement: concentration or dose not given beside the values. The conditions noted are these: fasted male C57BL/6 mice, oral administration 30 minutes before oral glucose; AUCglucose 0-120 minutes versus negative control group. The method, then:
The oral glucose tolerance test of the compounds according to the present invention was carried out according to the procedures disclosed in Andrikopoulos S, Blair A R, Deluca N, Fam B C, Proietto J, Am J Physiol Endocrinol Metab. 2008, Vol 295, E1323-1332. Briefly, male C57BL/6 mice at 8 to 9 weeks of age having 20 g to 25 g of body weight (Orient Bio Inc. Korea) were allowed to acclimatize to the surroundings (temperature: 20±2° C., humidity: 40-60%, light/dark cycle: 12 hours) for 1 week. During the acclimatization, the mice were given ad libitum access to feed and water. The mice were fasted from 18 hours before the test, except for allowing free access to water. After measuring the mice′ body weights and blood sugar levels, they were divided into test groups so as to have similar blood sugar levels. The mice were orally administered with a mixture of test compound and the diluent (0.5% solution of MC1500 (Sigma)). At 30 minutes after the administration, the mice were also orally administered with 20% glucose solution in an amount of 0.1 ml per 10 g of body weight. The blood samples were taken from the tail vain at 0 (right before the administration of the glucose solution), 15, 30, 60, 90, and 120 minutes after the administration of the glucose solution; and the blood sugar levels thereof were measured with a blood glucose test meter (GlucoDr. AGM-3000, All Medicus Co. Ltd.). The graph for blood sugar level on time for each test compound was plotted from the respective blood sugar values; and then area under the curve (AUCglucose) was determined. The inhibition rate of blood sugar (%) was calculated from the following formula. Inhibition rate of blood sugar (%)=[(AUCglucose of the negative control group−AUCglucose of the test group)/AUCglucose of the negative control group]×100

Assay [1] concerns the target T1, GPR119 (Homo sapiens, UniProt Q8TDV5).
T1 construct: host or cells: CHO-K1 (GPR119 CRE-bla, doxycycline-induced)
T1 sequence (Q8TDV5 1-335): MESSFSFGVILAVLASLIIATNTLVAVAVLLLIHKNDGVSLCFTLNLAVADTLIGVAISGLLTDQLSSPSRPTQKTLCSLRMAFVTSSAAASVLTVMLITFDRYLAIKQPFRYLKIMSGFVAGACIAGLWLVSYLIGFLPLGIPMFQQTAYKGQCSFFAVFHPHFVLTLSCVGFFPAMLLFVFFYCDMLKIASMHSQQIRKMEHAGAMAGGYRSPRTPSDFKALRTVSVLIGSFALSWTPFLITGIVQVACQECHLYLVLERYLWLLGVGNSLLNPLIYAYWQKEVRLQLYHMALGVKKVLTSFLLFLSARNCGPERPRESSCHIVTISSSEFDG
Kind of assay: cAMP Accumulation Assay (GPR119 CRE-bla CHO-K1 cells, LiveBLAzer-FRET B/G). The assay is classed as cell-based. The conditions noted are these: (Emax of the test compound/Emax of MBX-2982)x100, 5 hours incubation.

In assay [2] the target is T1, GPR119. Described as above. To be noted: for EC50: 5 hours incubation; for Emax (Fold): maximum activity, response ratio versus non-treated control group. The assay is classed as cell-based. The method, then:
32 μl of an assay medium (DMEM supplemented with GlutaMax™ 99%, dialyzed FBS 1%, non-essential amino acid 1 mM, HEPES 25 mM, penicillin 100 U/ml, and streptomycin 100 μg/ml) was added to each well of a 384 black well plate and then the GPR119 CRE-bla CHO-K1 cells (Invitrogen) were seeded in 1×10^4 cells per well. Doxycycline was dissolved in the assay medium in the concentration of 1 μg/ml. The resulting solution (4 μl) was added to each well, which was then incubated in a 5% CO 2 incubator at 37° C. for about 20 to 24 hours. Each test compounds were diluted with the assay medium to prepare 10 samples, which have concentrations ranging from […], respectively. Each samples (8 μl) was added to each well, which was then incubated in a 5% CO2 incubator at 37° C. for 5 hours. In case of the control group, the well was treated with a solution (8 μl) prepared by diluting dimethyl sulfoxide (DMSO) in the assay medium to 1%. The substrate mixture (8 μl) was added to each well, which was then left under darkness at room temperature for 2 hours. The substrate mixture contains the followings: 1 mM LiveBLAzer™-FRET B/G(CCF4-AM) substrate 6 μl, solution B 60 μl, solution C 904 μl, and solution D 30 μl.
Fluorescence intensity was determined under the wavelength conditions of 400 nm/465 nm (excitation/emission) for the blue channel and 400 nm/535 nm (excitation/emission) for the green channel, with the fluorescence microplate reader (SpectraFluor Plus. TECAN). The net activity of each well was calculated by subtracting the average value of the cell-free control group from the value of the unstimulated (i.e., non-treated) control group or the stimulated (i.e., test compound-treated) group at each wavelength. MBX-2982 (Metabolex) was used as a control drug. The response ratio was calculated by dividing the net signal ratio (465 nm/535 nm) of the control drug or the test compound by the net signal ratio (465 nm/535 nm) of the non-treated control group. The relative ratio (R.R) was calculated by dividing the maximum activity [Emax (fold)] of the test compound (i.e., % activity in comparison with the background) by the maximum activity [Emax (fold)] of the control drug (MBX-2982) [Emax (% RR)=(Emax of the test compound/Emax of MBX-2982)×100]. EC50 (half maximal effective concentration) was calculated using the software for statistical analysis “Prism 5.0 (GraphPad)”, based on the values obtained according to concentrations of the test compounds.

Usually EC50 stands for the concentration needed to bring the measured effect to its halfway point.

Consider `C[C@H]1CN(C(=O)OC(C)(C)C)CCN1c1ncc(-c2ccc(-n3cnn(C)c3=O)c(F)c2)cn1` [Example 1, (S)-tert-butyl 4-(5-(3-fluoro-4-(1-methyl-5-oxo-1H-1,2,4-triazol-4(5H)-yl)phenyl)pyrimidin-2-yl)-3-methylpiperazin-1-carboxylate], for which, in the assay on male C57BL/6 mice, the “Inhibition rate of blood sugar (%)” value was 22.3%. On GPR119 [1], the “Emax (% RR)” value is given as 123.9 % RR. For the same compound, at GPR119 [2], the response was half-maximal at 59 nM (EC50) and the “Emax (Fold)” value is 2.9 Fold.
With `CCc1cnc(N2CCN(c3ncc(-c4ccc(-n5cnn(C(C)C)c5=O)c(F)c4)cc3C#N)CC2)nc1` [Example 44, 2-(4-(5-ethylpyrimidin-2-yl)piperazin-1-yl)-5-(3-fluoro-4-(1-isopropyl-5-oxo-1H-1,2,4-triazol-4(5H)-yl)phenyl)nicotinonitrile sulfonate], in the assay on male C57BL/6 mice, the “Inhibition rate of blood sugar (%)” value was 27.0%.
`CCCn1ncn(-c2ccc(-c3ccc(N4CCN(C(=O)OC(C)(C)C)CC4C(F)(F)F)nc3)cc2F)c1=O` (stereo not drawn) [Example 50, tert-butyl 4-(5-(3-fluoro-4-(5-oxo-1-propyl-1H-1,2,4-triazol-4(5H)-yl)phenyl)pyridin-2-yl)-3-(trifluoromethyl)piperazin-1-carboxylate]: in the assay with male C57BL/6 mice, the “Inhibition rate of blood sugar (%)” value is given as 15.6%.
In the case of `C=C(C)OC(=O)N(C)C1CCN(c2ncc(-c3ccc(-n4cnn(C(C)C)c4=O)c(F)c3)cc2C#N)CC1` [Example 59, prop-1-en-2-yl 1-(3-cyano-5-(3-fluoro-4-(1-isopropyl-5-oxo-1H-1,2,4-triazol-4(5H)-yl)phenyl)pyridin-2-yl)piperidin-4-yl(methyl)carbamate], the “Emax (% RR)” value at GPR119 [1] was determined as 100.8 % RR. On GPR119 [2], a half-maximal effect (EC50) was put at 31 nM and the “Emax (Fold)” value was 2.5 Fold.
In the case of `CCN(CC)CCn1ncn(-c2ccc(-c3cnc(N4CCC(N(C)C(=O)OC(C)(C)C)CC4)c(C#N)c3)cc2F)c1=O` [Example 61, tert-butyl 1-(3-cyano-5-(4-(1-(2-(diethylamino)ethyl)-5-oxo-1H-1,2,4-triazol-4(5H)-yl)-3-fluorophenyl)pyridin-2-yl)piperidin-4-yl(methyl)carbamate], the “Inhibition rate of blood sugar (%)” value with male C57BL/6 mice is listed as 18.0%.
For `CCCn1ncn(-c2ccc(-c3cnc(N4CCC(c5nc(C(C)C)no5)CC4)c(C#N)c3)cc2F)c1=O` [Example 62, 5-(3-fluoro-4-(5-oxo-1-propyl-1H-1,2,4-triazol-4(5H)-yl)phenyl)-2-(4-(3-isopropyl-1,2,4-oxadiazol-5-yl)piperidin-1-yl)nicotinonitrile], at GPR119 [1], the “Emax (% RR)” value came out at 122.7 % RR. In addition, at GPR119 [2], the EC50 amounted to 1.3 nM and the “Emax (Fold)” value is 3.5 Fold.
In the case of `CCN(CC)CCn1ncn(-c2ccc(-c3cnc(N4CCC(c5nc(C(C)C)no5)CC4)c(C#N)c3)cc2F)c1=O` [Example 63, 5-(4-(1-(2-(diethylamino)ethyl)-5-oxo-1H-1,2,4-triazol-4(5H)-yl)-3-fluorophenyl)-2-(4-(3-isopropyl-1,2,4-oxadiazol-5-yl)piperidin-1-yl)nicotinonitrile], the “Inhibition rate of blood sugar (%)” value in the assay on male C57BL/6 mice stood at 27.7%.
On to `CC(C)c1noc(C2CCN(c3ncc(-c4ccc(-n5cnn(CN6CCCC6)c5=O)c(F)c4)cc3C#N)CC2)n1` [Example 64, 5-(3-fluoro-4-(5-oxo-1-(pyrrolidin-1-ylmethyl)-1H-1,2,4-triazol-4(5H)-yl)phenyl)-2-(4-(3-isopropyl-1,2,4-oxadiazol-5-yl)piperidin-1-yl)nicotinonitrile], for which the “Emax (% RR)” value at GPR119 [1] is on record as 130.8 % RR. For the same compound, on GPR119 [2], the EC50 stood at 2.6 nM and the “Emax (Fold)” value came to 3.8 Fold.
As for `CCn1ncn(-c2ccc(-c3cnc(N4CCC(c5nc(C(C)C)no5)CC4)c(C#N)c3)cc2)c1=O` [Example 65, 5-(4-(1-ethyl-5-oxo-1H-1,2,4-triazol-4(5H)-yl)phenyl)-2-(4-(3-isopropyl-1,2,4-oxadiazol-5-yl)piperidin-1-yl)nicotinonitrile], the “Emax (% RR)” value on GPR119 [1] is 123.8 % RR. Further, on GPR119 [2], a half-maximal response (EC50) required 2.4 nM and the “Emax (Fold)” value is given as 3.6 Fold.
Take `CCCn1ncn(-c2ccc(-c3cnc(N4CCC(c5noc(C(C)C)n5)CC4)c(C#N)c3)cc2F)c1=O` [Example 66, 5-(3-fluoro-4-(5-oxo-1-propyl-1H-1,2,4-triazol-4(5H)-yl)phenyl)-2-(4-(5-isopropyl-1,2,4-oxadiazol-3-yl)piperidin-1-yl)nicotinonitrile]: the “Emax (% RR)” value on GPR119 [1] is recorded as 122.1 % RR. At GPR119 [2], a half-maximal response (EC50) required 2.5 nM and the “Emax (Fold)” value was determined as 3.1 Fold.
`CC(C)c1nc(C2CCN(c3ncc(-c4ccc(-n5cnn(CN6CCCC6)c5=O)c(F)c4)cc3C#N)CC2)no1` [Example 68]: at GPR119 [1], the “Emax (% RR)” value came to 130.8 % RR. Further, on GPR119 [2], the EC50 amounted to 2.6 nM and the “Emax (Fold)” value is listed as 3.8 Fold.
As to `CC(C)c1nc(C2CCN(c3ncc(-c4ccc(-n5cnn(CC(N)=O)c5=O)cc4)cc3C#N)CC2)no1` [Example 72, 2-(4-(4-(5-cyano-6-(4-(5-isopropyl-1,2,4-oxadiazol-3-yl)piperidin-1-yl)pyridin-3-yl)phenyl)-5-oxo-4,5-dihydro-1H-1,2,4-triazol-1-yl)acetamide], the “Inhibition rate of blood sugar (%)” value with male C57BL/6 mice is recorded as 16.5%.
Regarding `CC(C)n1ncn(-c2ccc(-c3cnc(N4CCC(c5nnc(C(F)(F)F)o5)CC4)c(C#N)c3)cc2)c1=O` [Example 73, 5-(4-(1-isopropyl-5-oxo-1H-1,2,4-triazol-4(5H)-yl)phenyl)-2-(4-(5-(trifluoromethyl)-1,3,4-oxadiazol-2-yl)piperidin-1-yl)nicotinonitrile], on GPR119 [1], the “Emax (% RR)” value is on record as 101.3 % RR. At GPR119 [2], the EC50 was 8.2 nM and the “Emax (Fold)” value is recorded as 2.9 Fold.
The corresponding values for `CC(C)n1ncn(-c2ccc(-c3cnc(N4CCC(c5nnc(C(F)(F)F)o5)CC4)c(C#N)c3)cc2F)c1=O` [Example 74, 5-(3-fluoro-4-(1-isopropyl-5-oxo-1H-1,2,4-triazol-4(5H)-yl)phenyl)-2-(4-(5-(trifluoromethyl)-1,3,4-oxadiazol-2-yl)piperidin-1-yl)nicotinonitrile] are 104.2 % RR, 5.6 nM and 3.0 Fold.
As to `COCCn1ncn(-c2ccc(-c3cnc(N4CCC(c5nnc(C(F)(F)F)o5)CC4)c(C#N)c3)cc2F)c1=O` [Example 76, 5-(3-fluoro-4-(1-(2-methoxyethyl)-5-oxo-1H-1,2,4-triazol-4(5H)-yl)phenyl)-2-(4-(5-(trifluoromethyl)-1,3,4-oxadiazol-2-yl)piperidin-1-yl)nicotinonitrile], the “Emax (% RR)” value on GPR119 [1] came to 101.8 % RR. At GPR119 [2], the EC50 turned out to be 19.6 nM and the “Emax (Fold)” value worked out at 2.9 Fold.
